The values below come from patent US9452980B2, “Substituted benzamides” (Hoffmann-La Roche Inc., priority 2009, dated 2016).

For test [1], the target named is mouse TAAR1 (Mus musculus (Mouse), UniProt Q923Y8). Kind of test: Radioligand binding assay on mouse TAAR1. The settings on record: read-out: Ki (μM) mouse. The method in brief: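 Displacement of the tritiated oxazol-2-ylamine radioligand was measured by filtration and scintillation counting after 1 h incubation at 4 °C. Test concentrations ran 10 pM–10 μM in duplicate, with 10 μM cold ligand giving nonspecific binding. The receptor source was membranes of a stable mouse TAAR1 HEK293 line.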

Test [2] has as its target rat TAAR1 (Rattus norvegicus (Rat), UniProt Q923Y9). Kind of test: Radioligand binding assay on rat TAAR1. Conditions: read-out: Ki (μM) rat. The method in brief: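 Membranes from HEK293 cells stably expressing rat TAAR1, with Kd checked per batch by saturation. Competition with ³H-(S)-4-[(ethyl-phenyl-amino)-methyl]-4,5-dihydro-oxazol-2-ylamine, compounds 10 pM–10 μM in duplicate, 1 hr at 4 °C. Filtration then scintillation counting; nonspecific binding defined with 10 μM unlabeled ligand.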

The mark [3] stands for this setting: mouse TAAR1, HEK-293 membranes, first value of cell mouse/rat.
The mark [4] stands for this setting: rat TAAR1, HEK-293 membranes, second value of cell mouse/rat.

Where a name gives a salt, the structure may show the parent alone. Read-outs that look alike come from different tables or passages of the source.

Chain of mouse TAAR1 (Q923Y8 whole entry): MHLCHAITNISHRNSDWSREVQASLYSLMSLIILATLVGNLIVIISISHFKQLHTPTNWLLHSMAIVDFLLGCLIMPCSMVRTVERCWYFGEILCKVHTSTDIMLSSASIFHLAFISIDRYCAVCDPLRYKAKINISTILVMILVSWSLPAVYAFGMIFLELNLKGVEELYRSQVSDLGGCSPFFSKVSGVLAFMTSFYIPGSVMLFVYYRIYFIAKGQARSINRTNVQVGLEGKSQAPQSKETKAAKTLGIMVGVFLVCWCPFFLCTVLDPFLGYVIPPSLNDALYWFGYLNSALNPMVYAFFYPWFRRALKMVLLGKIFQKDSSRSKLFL
Chain of rat TAAR1 (Q923Y9 whole entry): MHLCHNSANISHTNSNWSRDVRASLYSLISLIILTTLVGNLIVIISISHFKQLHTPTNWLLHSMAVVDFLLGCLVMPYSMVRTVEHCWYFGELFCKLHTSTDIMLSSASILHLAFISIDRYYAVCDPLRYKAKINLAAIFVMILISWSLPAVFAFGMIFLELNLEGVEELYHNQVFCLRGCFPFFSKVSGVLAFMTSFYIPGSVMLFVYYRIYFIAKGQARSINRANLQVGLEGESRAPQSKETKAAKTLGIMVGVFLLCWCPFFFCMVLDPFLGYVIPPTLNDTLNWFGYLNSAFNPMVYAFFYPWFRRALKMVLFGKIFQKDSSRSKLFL

What is called Ki is the equilibrium dissociation constant of an inhibitor or competing ligand from its target. As for `O=C(Nc1ccc(CCC2CCNC2)cc1)c1ncc(F)cc1F` (racemic) [Example 133, (RS)-3,5-Difluoro-pyridine-2-carboxylic acid [4-(2-pyrrolidin-3-yl-ethyl)-phenyl]-amide hydrochloride], the inhibition constant (Ki) in test [1] (setting [3]) amounted to 1.52 µM; in test [2] (setting [4]), 0.0174 µM.

`CO[C@H]1CC[C@H](C(=O)Nc2ccc(C3CNCCO3)cc2)CC1` (mixture of isomers) [Example 255, trans-(RS)-4-Methoxy-N-(4-(morpholin-2-yl)phenyl)cyclohexanecarboxamide hydrochloride]: the results for the Ki in test [1] (setting [3]) and in test [2] (setting [4]) were 5.1 µM and 0.428 µM, respectively.

In the case of `O=C(Nc1ccc([C@H]2CCCNC2)cc1)c1cnc(Cl)cn1` [Example 239, 5-Chloro-pyrazine-2-carboxylic acid ((R)-4-piperidin-3-yl-phenyl)-amide hydrochloride], the Ki in test [1] amounted to 0.0396 µM; in test [2] (setting [4]), 0.0085 µM.

`O=C(Nc1ccc([C@H]2CCCNC2)cc1)c1ccc(C(F)(F)F)nc1` [Example 265, (R)—N-(4-(Piperidin-3-yl)phenyl)-6-(trifluoromethyl)nicotinamide hydrochloride]: the Ki in test [1] amounted to 0.0209 µM; in test [2], 0.0059 µM.

`CCOc1ccc(C(=O)Nc2ccc(CCC3CCCN3)cc2)nc1` (racemic) [Example 172, (RS)-5-Ethoxy-N-(4-(2-(pyrrolidin-2-yl)ethyl)phenyl)picolinamide hydrochloride]: the Ki in test [1] (setting [3]) is 0.113 µM; in test [2] (setting [4]) it was 0.0077 µM.

For `O=C(Nc1ccc([C@H]2CCCNC2)cc1)c1cccc(C(F)(F)F)c1` [Example 261, (R)—N-(4-(Piperidin-3-yl)phenyl)-3-(trifluoromethyl)benzamide hydrochloride], the Ki in test [1] (setting [3]) stood at 0.0027 µM; in test [2], 0.0015 µM.

For the compound `O=C(Nc1ccc(Cl)cc1)Nc1ccc(CCC2CCNC2)cc1` (racemic) [Example 116, (RS)-1-(4-Chloro-phenyl)-3-[4-(2-pyrrolidin-3-yl-ethyl)-phenyl]-urea hydrochloride], the Ki in test [1] (setting [3]) is 0.0608 µM; in test [2] (setting [4]) it was 0.0014 µM.

For `Cc1ccc(C(=O)Nc2ccc([C@@H]3CNCCO3)cc2)cc1` [Example 195, (R)-4-Methyl-N-(4-(morpholin-2-yl)phenyl)benzamide hydrochloride], the Ki is 0.0135 µM in test [1] (setting [3]) and 0.0022 µM in test [2] (setting [4]).

In the case of `O=C(Nc1ccc(CC2CCCN2)cc1)c1ccc(Cl)cc1` (racemic) [Example 107, (RS)-4-Chloro-N-(4-pyrrolidin-2-ylmethyl-phenyl)-benzamide hydrochloride], the Ki was 0.0027 µM in test [1] (setting [3]) and 0.0445 µM in test [2] (setting [4]).

On to `CSc1ccc(C(=O)Nc2ccc([C@@H]3CCCNC3)cc2)cn1` [Example 244, (S)-6-(Methylthio)-N-(4-(piperidin-3-yl)phenyl)nicotinamide hydrochloride], for which the Ki was determined as 0.268 µM in test [1] and 0.0049 µM in test [2] (setting [4]).

As to `O=C(CCc1ccc(Cl)cc1)Nc1ccc(C2CCCNC2)cc1` (racemic) [Example 101, (RS)-3-(4-Chloro-phenyl)-N-(4-piperidin-3-yl-phenyl)-propionamide hydrochloride], the values for the Ki in test [1] (setting [3]) and in test [2] (setting [4]) were 0.002 µM and 0.0263 µM, respectively.

As to `Cc1ccc(CNC(=O)Nc2ccc(C3CNCCO3)cc2)cc1` (racemic) [Example 306, (RS)-1-(4-Methylbenzyl)-3-(4-(morpholin-2-yl)phenyl)urea hydrochloride], the Ki in test [1] (setting [3]) came to 0.0266 µM; in test [2] (setting [4]), 0.0038 µM.

For `CN1CCN(c2ccc(NC(=O)Nc3ccc(Cl)c(Cl)c3)cc2)CC1` [Example 2, 1-(3,4-Dichloro-phenyl)-3-[4-(4-methyl-piperazin-1-yl)-phenyl]-urea], the Ki is 0.0006 µM in test [1] and 0.001 µM in test [2] (setting [4]).

Regarding `O=C(Nc1ccc([C@@H]2CNCCO2)cc1)c1ccc(Cl)nc1` [Example 207, (R)-6-Chloro-N-(4-(morpholin-2-yl)phenyl)nicotinamide hydrochloride], the results for the Ki in test [1] (setting [3]) and in test [2] were 0.0525 µM and 0.0042 µM, respectively.

In the case of `O=C(NCc1ccc([C@H]2CNCCO2)cc1)c1cccc(Cl)c1` [Example 318, (S)-3-Chloro-N-(4-(morpholin-2-yl)benzyl)benzamide hydrochloride], the Ki in test [1] (setting [3]) was 12900 µM; in test [2] (setting [4]) it was 0.0312 µM.

For `O=C(Nc1ccc(C2CCNC2)cc1)c1cccc(Cl)c1` (racemic) [Example 20, (RS)-3-Chloro-N-(4-pyrrolidin-3-yl-phenyl)-benzamide hydrochloride], the Ki in test [1] (setting [3]) was determined as 0.0005 µM; in test [2] (setting [4]), 0.0077 µM.

For the compound `O=C(Nc1ccc(CCC2CCNC2)cc1)c1ccc(Cl)cn1` (racemic) [Example 117, (RS)-5-Chloro-pyridine-2-carboxylic acid [4-(2-pyrrolidin-3-yl-ethyl)-phenyl]-amide hydrochloride], the figures for the Ki in test [1] (setting [3]) and in test [2] (setting [4]) were 0.0531 µM and 0.0029 µM, respectively.

In the case of `O=C(Nc1ccc([C@H]2CCNC2)cc1)c1ccc(OCC(F)(F)F)nc1` [Example 204, (R)—N-(4-(pyrrolidin-3-yl)phenyl)-6-(2,2,2-trifluoroethoxy)nicotinamide hydrochloride], the values for the Ki in test [1] (setting [3]) and in test [2] (setting [4]) were 0.005 µM and 0.0043 µM, respectively.

On to `O=C(Nc1ccc(CCC2CCCCN2)cc1)c1ccc(Cl)cn1` (racemic) [Example 171, (RS)-5-Chloro-N-(4-(2-(piperidin-2-yl)ethyl)phenyl)picolinamide hydrochloride], for which the figures for the Ki in test [1] (setting [3]) and in test [2] (setting [4]) were 0.198 µM and 0.0101 µM, respectively.

In the case of `O=C(Nc1ccc(C2CNCCO2)cc1)NC1CCCCC1` (racemic) [Example 307, (RS)-1-cyclohexyl-3-(4-(morpholin-2-yl)phenyl)urea hydrochloride], the Ki in test [1] (setting [3]) amounted to 0.0778 µM; in test [2] (setting [4]) it was 0.0305 µM.

With `O=C(Nc1ccc(CCC2CCNC2)cc1)c1ncccc1F` (racemic) [Example 132, (RS)-3-Fluoro-pyridine-2-carboxylic acid [4-(2-pyrrolidin-3-yl-ethyl)-phenyl]-amide hydrochloride], the Ki in test [1] (setting [3]) turned out to be 9.99 µM; in test [2] (setting [4]) it was 0.141 µM.

In the case of `O=C(Nc1ccc([C@@H]2CCCNC2)cc1)c1ccc(Br)nc1` [Example 252, (S)-6-Bromo-N-(4-(piperidin-3-yl)phenyl)nicotinamide 2,2,2-trifluoroacetate], the Ki turned out to be 0.0783 µM in test [1] (setting [3]) and 0.0044 µM in test [2] (setting [4]).

For `CCOc1ccc(C(=O)Nc2ccc(C3CNCCO3)cc2)cn1` (racemic) [Example 245, (RS)-6-Ethoxy-N-(4-(morpholin-2-yl)phenyl)nicotinamide hydrochloride], the Ki in test [1] (setting [3]) was 0.0649 µM; in test [2] (setting [4]) it was 0.0063 µM.

`O=C(Nc1ccc(C2CCNC2)cc1)OCCc1ccc(Cl)cc1` (racemic) [Example 120, (RS)-(4-Pyrrolidin-3-yl-phenyl)-carbamic acid 2-(4-chloro-phenyl)-ethyl ester]: the Ki in test [1] (setting [3]) was 0.0004 µM; in test [2] (setting [4]), 0.0013 µM.

Take `N#Cc1ccc(C(=O)Nc2ccc(C3CCNC3)cc2)nc1` (racemic) [Example 165, (RS)-5-Cyano-N-(4-(pyrrolidin-3-yl)phenyl)picolinamide hydrochloride]: the Ki was 0.126 µM in test [1] (setting [3]) and 0.0411 µM in test [2] (setting [4]).

As for `COc1ccc(C(=O)Nc2ccc([C@H]3CCCNC3)cc2)cc1Cl` [Example 202, (R)-3-Chloro-4-methoxy-N-(4-(piperidin-3-yl)phenyl)benzamide hydrochloride], the Ki stood at 0.0087 µM in test [1] and 0.0015 µM in test [2].
